For one assay, the target named is T1, HiBit-BRM fusion protein (Homo sapiens, UniProt P51531).
T1 construct: expressed in transfected cells
The assay can be described thus: HiBiT-BRM cell-based degradation assay (Nano-Glo HiBiT lytic detection, 24 h). As to conditions: HeLa cell line expressing HiBiT-BRM; for DC50: read-out: BRM HiBit Degradation IC50. The essentials:
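Luminescence from LgBiT complementation quantified remaining HiBiT-BRM in stably expressing HeLa cells after 24 h compound exposure (top final dose 30 μM, 3-fold, 10 points, duplicate). Degradation expressed as percent relative to DMSO and a 2 μM reference degrader.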
In general terms: HiBiT is a short tag that completes a luciferase, so light tracks the accessible tagged protein.

Assay [1] has as its target T2, HiBit-BRG1 fusion protein (Homo sapiens, UniProt P51532).
T2 construct: expressed in transfected cells
Put plainly: HiBiT-BRG1 cell-based degradation assay (Nano-Glo HiBiT lytic detection, 24 h). As to conditions: HeLa cell line expressing HiBit-BRG1 and LgBit; for Dmax: read-out: BRG1 HiBit Degradation Maximum (%); for DC50: read-out: BRMG1 HiBit Degradation IC50. The procedure, abridged: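 Luminescence from HiBiT/LgBiT complementation after lytic detection reagent was read following 24 h compound exposure of HeLa cells stably carrying HiBiT-BRG1 plus LgBiT (5000 cells/well). Signal scaled to % degradation using DMSO-treated cells as 0% and cells given 2 μM known BRM/BRG1 degrader as 100%.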

T2 sequence (P51532 whole entry, the tested form may be a part): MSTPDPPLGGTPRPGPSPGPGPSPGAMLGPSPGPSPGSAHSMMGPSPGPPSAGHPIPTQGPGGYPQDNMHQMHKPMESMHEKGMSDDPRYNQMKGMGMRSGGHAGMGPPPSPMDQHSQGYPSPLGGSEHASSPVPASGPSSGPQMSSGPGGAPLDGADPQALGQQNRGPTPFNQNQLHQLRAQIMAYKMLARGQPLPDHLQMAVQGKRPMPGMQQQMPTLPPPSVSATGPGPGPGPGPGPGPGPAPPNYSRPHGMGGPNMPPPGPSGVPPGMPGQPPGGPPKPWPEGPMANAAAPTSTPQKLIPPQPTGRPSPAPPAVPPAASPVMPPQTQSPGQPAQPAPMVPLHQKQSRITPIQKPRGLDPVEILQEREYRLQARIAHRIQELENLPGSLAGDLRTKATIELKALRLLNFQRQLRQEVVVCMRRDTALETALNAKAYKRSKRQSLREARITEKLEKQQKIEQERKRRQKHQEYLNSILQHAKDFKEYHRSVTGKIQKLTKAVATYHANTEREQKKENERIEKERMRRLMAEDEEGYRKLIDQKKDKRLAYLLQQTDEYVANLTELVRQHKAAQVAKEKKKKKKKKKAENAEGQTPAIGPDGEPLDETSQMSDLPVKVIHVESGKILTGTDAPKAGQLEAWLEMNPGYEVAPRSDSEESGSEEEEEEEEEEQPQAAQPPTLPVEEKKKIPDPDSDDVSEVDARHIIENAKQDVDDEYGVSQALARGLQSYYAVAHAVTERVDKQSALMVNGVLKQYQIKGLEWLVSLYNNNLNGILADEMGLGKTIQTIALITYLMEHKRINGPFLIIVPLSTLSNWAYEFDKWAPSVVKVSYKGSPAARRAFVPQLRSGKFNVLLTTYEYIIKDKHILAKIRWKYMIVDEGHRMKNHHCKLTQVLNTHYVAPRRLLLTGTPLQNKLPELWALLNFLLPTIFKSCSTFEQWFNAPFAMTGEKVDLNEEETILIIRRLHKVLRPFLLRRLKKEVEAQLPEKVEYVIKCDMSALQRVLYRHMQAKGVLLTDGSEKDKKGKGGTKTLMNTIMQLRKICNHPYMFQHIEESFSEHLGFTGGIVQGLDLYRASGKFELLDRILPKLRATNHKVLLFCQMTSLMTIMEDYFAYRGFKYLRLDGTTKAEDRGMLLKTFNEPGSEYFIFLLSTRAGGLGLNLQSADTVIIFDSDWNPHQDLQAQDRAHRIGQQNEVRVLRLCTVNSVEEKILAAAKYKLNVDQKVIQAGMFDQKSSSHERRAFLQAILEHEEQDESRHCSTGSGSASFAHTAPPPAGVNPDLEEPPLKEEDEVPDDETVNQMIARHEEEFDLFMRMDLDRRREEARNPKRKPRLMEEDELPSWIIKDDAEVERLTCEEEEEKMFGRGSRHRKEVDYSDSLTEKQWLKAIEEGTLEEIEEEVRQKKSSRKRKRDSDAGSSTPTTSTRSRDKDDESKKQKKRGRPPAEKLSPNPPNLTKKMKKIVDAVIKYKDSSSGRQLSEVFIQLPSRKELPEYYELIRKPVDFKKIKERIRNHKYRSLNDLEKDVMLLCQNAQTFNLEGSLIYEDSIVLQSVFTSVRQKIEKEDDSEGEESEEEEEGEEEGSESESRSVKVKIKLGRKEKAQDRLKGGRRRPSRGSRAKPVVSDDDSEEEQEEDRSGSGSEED
T1 sequence (P51531 whole entry, the tested form may be a part): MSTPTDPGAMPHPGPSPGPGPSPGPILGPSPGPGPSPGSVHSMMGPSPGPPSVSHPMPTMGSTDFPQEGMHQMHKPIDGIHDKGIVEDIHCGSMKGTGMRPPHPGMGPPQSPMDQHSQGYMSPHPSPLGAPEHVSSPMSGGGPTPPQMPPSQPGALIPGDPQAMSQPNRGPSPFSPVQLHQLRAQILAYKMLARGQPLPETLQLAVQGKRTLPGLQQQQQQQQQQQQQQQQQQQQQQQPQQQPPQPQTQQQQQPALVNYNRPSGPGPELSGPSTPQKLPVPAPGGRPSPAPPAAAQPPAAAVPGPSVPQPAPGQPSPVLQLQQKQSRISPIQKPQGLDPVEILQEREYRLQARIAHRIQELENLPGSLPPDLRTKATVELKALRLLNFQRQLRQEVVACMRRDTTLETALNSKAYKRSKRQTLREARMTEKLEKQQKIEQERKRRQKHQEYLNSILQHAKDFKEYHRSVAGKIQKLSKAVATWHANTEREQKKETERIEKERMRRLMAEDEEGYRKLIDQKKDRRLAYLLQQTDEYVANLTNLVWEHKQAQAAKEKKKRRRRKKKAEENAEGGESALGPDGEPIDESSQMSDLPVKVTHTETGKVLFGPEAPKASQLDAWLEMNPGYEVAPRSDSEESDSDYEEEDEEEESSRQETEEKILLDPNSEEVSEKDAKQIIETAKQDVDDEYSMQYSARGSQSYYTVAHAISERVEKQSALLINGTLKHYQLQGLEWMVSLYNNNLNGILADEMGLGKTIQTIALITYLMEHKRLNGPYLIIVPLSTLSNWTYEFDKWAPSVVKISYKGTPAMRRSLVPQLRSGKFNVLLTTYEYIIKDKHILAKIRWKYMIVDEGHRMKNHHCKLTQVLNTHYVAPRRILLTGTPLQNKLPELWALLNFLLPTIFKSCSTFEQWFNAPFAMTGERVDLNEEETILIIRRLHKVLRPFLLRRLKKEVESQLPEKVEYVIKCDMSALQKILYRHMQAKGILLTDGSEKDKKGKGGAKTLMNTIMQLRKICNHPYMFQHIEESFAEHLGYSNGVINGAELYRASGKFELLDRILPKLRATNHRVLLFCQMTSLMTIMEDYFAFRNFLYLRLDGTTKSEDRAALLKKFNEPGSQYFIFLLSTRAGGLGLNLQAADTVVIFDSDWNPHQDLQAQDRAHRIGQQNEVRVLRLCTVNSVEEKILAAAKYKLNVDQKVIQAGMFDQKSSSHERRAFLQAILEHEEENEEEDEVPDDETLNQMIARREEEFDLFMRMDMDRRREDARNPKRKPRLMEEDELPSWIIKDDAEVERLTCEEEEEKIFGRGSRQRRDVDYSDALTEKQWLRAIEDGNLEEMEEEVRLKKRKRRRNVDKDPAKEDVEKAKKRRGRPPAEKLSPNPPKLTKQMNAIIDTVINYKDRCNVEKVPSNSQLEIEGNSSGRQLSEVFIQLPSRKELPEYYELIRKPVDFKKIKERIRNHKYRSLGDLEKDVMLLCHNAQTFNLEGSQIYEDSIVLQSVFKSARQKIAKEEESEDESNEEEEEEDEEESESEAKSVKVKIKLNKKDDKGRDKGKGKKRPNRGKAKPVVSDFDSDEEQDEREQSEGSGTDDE

Regarding `Cc1ncsc1-c1ccc([C@H](C)NC(=O)[C@@H]2C[C@@H](O)CN2C(=O)[C@@H](c2cc(N3CCC[C@@H](c4cc5nnc(-c6ccccc6O)cc5n4C4CC4)C3)no2)C(C)C)cc1` [Compound 100, (2S,4R)-1-((R)-2-(3-((R)-3-(5-cyclopropyl-3-(2-hydroxyphenyl)-5H-pyrrolo[3,2-c]pyridazin-6-yl)piperidin-1-yl)isoxazol-5-yl)-3-methylbutanoyl)-4-hydroxy-N-((S)-1-(4-(4-methylthiazol-5-yl)phenyl)ethyl)pyrrolidine-2-carboxamide], on HiBit-BRM fusion protein, the “BRM HiBit Degradation Maximum (%)” value was “A (“A” indicates maximum degradation ≥75%)” and the DC50 is greater than 10 nM. In assay [1], the Dmax was less than 50%.

Take `CC(C)C(C(=O)N1C[C@H](O)C[C@H]1C(=O)NC12CC(C1)C2)c1cc(N2CC3(CC(c4cc5nnc(-c6ccccc6O)cc5n4C4CCC4)C3)C2)no1` (stereo partly drawn) [Compound 120, (2S,4R)-N-(bicyclo[1.1.1]pentan-1-yl)-1-(2-(3-(6-(5-cyclobutyl-3-(2-hydroxyphenyl)-5H-pyrrolo[3,2-c]pyridazin-6-yl)-2-azaspiro[3.3]heptan-2-yl)isoxazol-5-yl)-3-methylbutanoyl)-4-hydroxypyrrolidine-2-carboxamide]: at HiBit-BRM fusion protein, the “BRM HiBit Degradation Maximum (%)” value was “A (“A” indicates maximum degradation ≥75%)” and the DC50 was greater than 10 nM. In assay [1], the Dmax is less than 50%.

On to `Cc1ncsc1-c1ccc(CNC(=O)[C@@H]2C[C@@H](O)CN2C(=O)[C@@H](c2cc(-c3cnc(N4CC[C@H](c5cc6nnc(-c7ccccc7O)cc6n5C5CC5)C4)nc3)no2)C(C)C)cc1` [Compound 90, (2S,4R)-1-((R)-2-(3-(2-((S)-3-(5-cyclopropyl-3-(2-hydroxyphenyl)-5H-pyrrolo[3,2-c]pyridazin-6-yl)pyrrolidin-1-yl)pyrimidin-5-yl)isoxazol-5-yl)-3-methylbutanoyl)-4-hydroxy-N-(4-(4-methylthiazol-5-yl)benzyl)pyrrolidine-2-carboxamide], for which, at HiBit-BRM fusion protein, the “BRM HiBit Degradation Maximum (%)” value was “A (“A” indicates maximum degradation ≥75%)” and the DC50 was less than 10 nM. Also, in assay [1], the Dmax is less than 50%.

Turning to `Cc1ncsc1-c1ccc([C@H](C)NC(=O)[C@@H]2C[C@@H](O)CN2C(=O)[C@@H](c2cc(-c3cnc(N4CCC(c5cc6nnc(-c7ccccc7O)cc6n5C)CC4)nc3)no2)C(C)C)cc1` [Compound 21, (2S,4R)-4-hydroxy-1-((R)-2-(3-(2-(4-(3-(2-hydroxyphenyl)-5-methyl-5H-pyrrolo[3,2-c]pyridazin-6-yl)piperidin-1-yl)pyrimidin-5-yl)isoxazol-5-yl)-3-methylbutanoyl)-N—((S)-1-(4-(4-methylthiazol-5-yl)phenyl)ethyl) pyrrolidine-2-carboxamide], at HiBit-BRM fusion protein, the “BRM HiBit Degradation Maximum (%)” value was “A (“A” indicates maximum degradation ≥75%)” and the DC50 was less than 10 nM. In addition, in assay [1], the Dmax was greater than 50% and the DC50 was less than 10 nM.

With `Cc1ncsc1-c1ccc([C@H](C)NC(=O)[C@@H]2C[C@@H](O)CN2C(=O)[C@@H](c2cc(N3CCC4(CCC(c5cc6nnc(-c7ccccc7O)cc6n5C5CC5)CC4)CC3)no2)C(C)C)cc1` [Compound 85, (2S,4R)-1-((R)-2-(3-(9-(5-cyclopropyl-3-(2-hydroxyphenyl)-5H-pyrrolo[3,2-c]pyridazin-6-yl)-3-azaspiro[5.5]undecan-3-yl)isoxazol-5-yl)-3-methylbutanoyl)-4-hydroxy-N-((S)-1-(4-(4-methylthiazol-5-yl)phenyl)ethyl)pyrrolidine-2-carboxamide], on HiBit-BRM fusion protein, the “BRM HiBit Degradation Maximum (%)” value is reported as “A (“A” indicates maximum degradation ≥75%)” and the DC50 is less than 10 nM. Besides, in assay [1], the Dmax was greater than 75% and the DC50 is greater than 10 nM.

Consider `CC(C)[C@@H](C(=O)N1C[C@H](O)C[C@H]1C(=O)N[C@@H](C)c1ccccc1)c1cc(-c2cnc(N3CC[C@H](c4cc5nnc(-c6ccccc6O)cc5n4C4CC4)C3)nc2)no1` [Compound 93, (2S,4R)-1-((R)-2-(3-(2-((S)-3-(5-cyclopropyl-3-(2-hydroxyphenyl)-5H-pyrrolo[3,2-c]pyridazin-6-yl)pyrrolidin-1-yl)pyrimidin-5-yl)isoxazol-5-yl)-3-methylbutanoyl)-4-hydroxy-N-((S)-1-phenylethyl)pyrrolidine-2-carboxamide], for which, on HiBit-BRM fusion protein, the “BRM HiBit Degradation Maximum (%)” value is given as “A (“A” indicates maximum degradation ≥75%)” and the DC50 was less than 10 nM. Moreover, the Dmax in assay [1] is less than 50%.

As for `C#Cc1ccc(CNC(=O)[C@@H]2C[C@@H](O)CN2C(=O)C(c2cc(N3CC4(CC(c5cc6nnc(-c7ccccc7O)cc6n5C5CCC5)C4)C3)no2)C(C)C)c(OC)c1` (stereo partly drawn) [Compound 58, (2S,4R)-1-(2-(3-(6-(5-cyclobutyl-3-(2-hydroxyphenyl)-5H-pyrrolo[3,2-c]pyridazin-6-yl)-2-azaspiro[3.3]heptan-2-yl)isoxazol-5-yl)-3-methylbutanoyl)-N-(4-ethynyl-2-methoxybenzyl)-4-hydroxypyrrolidine-2-carboxamide], at HiBit-BRM fusion protein, the “BRM HiBit Degradation Maximum (%)” value is listed as “A (“A” indicates maximum degradation ≥75%)” and the DC50 was less than 10 nM. Also, in assay [1], the Dmax was less than 50%.

`C#CCNC(=O)[C@@H]1C[C@@H](O)CN1C(=O)C(c1cc(N2CC3(CC(c4cc5nnc(-c6ccccc6O)cc5n4C4CCC4)C3)C2)no1)C(C)C` (stereo partly drawn) [Compound 53, (2S,4R)-1-(2-(3-(6-(5-cyclobutyl-3-(2-hydroxyphenyl)-5H-pyrrolo[3,2-c]pyridazin-6-yl)-2-azaspiro[3.3]heptan-2-yl)isoxazol-5-yl)-3-methylbutanoyl)-4-hydroxy-N-(prop-2-yn-1-yl)pyrrolidine-2-carboxamide]: on HiBit-BRM fusion protein, the “BRM HiBit Degradation Maximum (%)” value is “A (“A” indicates maximum degradation ≥75%)” and the DC50 was greater than 10 nM. In addition, in assay [1], the Dmax was less than 50%.

With `Cc1ncsc1-c1ccc([C@H](C)NC(=O)[C@@H]2C[C@@H](O)CN2C(=O)[C@@H](c2cc(OCCN3CC(n4cc(C(F)F)c5nnc(-c6ccccc6O)cc54)C3)no2)C(C)C)cc1` [Compound 32, (2S,4R)-1-((R)-2-(3-(2-(3-(7-(difluoromethyl)-3-(2-hydroxyphenyl)-5H-pyrrolo[3,2-c]pyridazin-5-yl)azetidin-1-yl)ethoxy)isoxazol-5-yl)-3-methylbutanoyl)-4-hydroxy-N—((S)-1-(4-(4-methylthiazol-5-yl)phenyl)ethyl)pyrrolidine-2-carboxamide], the “BRM HiBit Degradation Maximum (%)” value at HiBit-BRM fusion protein is “C (“C” indicates maximum degradation <50%)”. For the same compound, the Dmax in assay [1] was less than 50%.

For `C#Cc1ccc(CNC(=O)[C@@H]2C[C@@H](O)CN2C(=O)C(c2cc(N3CC4(CC(c5cc6nnc(-c7ccccc7O)cc6n5C5CCC5)C4)C3)no2)C(C)C)cc1` (stereo partly drawn) [Compound 57, (2S,4R)-1-(2-(3-(6-(5-cyclobutyl-3-(2-hydroxyphenyl)-5H-pyrrolo[3,2-c]pyridazin-6-yl)-2-azaspiro[3.3]heptan-2-yl)isoxazol-5-yl)-3-methylbutanoyl)-N-(4-ethynylbenzyl)-4-hydroxypyrrolidine-2-carboxamide], at HiBit-BRM fusion protein, the “BRM HiBit Degradation Maximum (%)” value was “A (“A” indicates maximum degradation ≥75%)” and the DC50 was less than 10 nM. In addition, the Dmax in assay [1] is less than 50%.

In the case of `Cc1ncsc1-c1ccc([C@H](C)NC(=O)[C@@H]2C[C@@H](O)CN2C(=O)[C@@H](c2cc(N3CC4(CC(c5cc6nnc(-c7ccccc7O)cc6n5C5CC5)C4)C3)no2)C(C)C)cc1` [Compound 78, (2S,4R)-1-((R)-2-(3-(6-(5-cyclopropyl-3-(2-hydroxyphenyl)-5H-pyrrolo[3,2-c]pyridazin-6-yl)-2-azaspiro[3.3]heptan-2-yl)isoxazol-5-yl)-3-methylbutanoyl)-4-hydroxy-N-((S)-1-(4-(4-methylthiazol-5-yl)phenyl)ethyl)pyrrolidine-2-carboxamide], on HiBit-BRM fusion protein, the “BRM HiBit Degradation Maximum (%)” value is on record as “A (“A” indicates maximum degradation ≥75%)” and the DC50 was less than 10 nM. In addition, in assay [1], the Dmax is less than 50%.

With `Cc1ncsc1-c1ccc([C@H](C)NC(=O)[C@@H]2C[C@@H](O)CN2C(=O)[C@@H](c2cc(-c3cc(N4CC[C@@H](c5cc6nnc(-c7ccccc7O)cc6n5C5CC5)C4)ccn3)no2)C(C)C)cc1` (single isomer, unassigned) [Compound 91], at HiBit-BRM fusion protein, the “BRM HiBit Degradation Maximum (%)” value is “A (“A” indicates maximum degradation ≥75%)” and the DC50 is greater than 10 nM. In addition, the Dmax in assay [1] is less than 50%.

As to `Cc1ncsc1-c1ccc([C@H](C)NC(=O)[C@@H]2C[C@@H](O)CN2C(=O)[C@@H](c2cc(-c3cnc(N4CC[C@H](c5cc6nnc(-c7ccccc7O)cc6n5C56CC(C5)C6)C4)nc3)no2)C(C)C)cc1` [Compound 95, (2S,4R)-1-((R)-2-(3-(2-((S)-3-(5-(bicyclo[1.1.1]pentan-1-yl)-3-(2-hydroxyphenyl)-5H-pyrrolo[3,2-c]pyridazin-6-yl)pyrrolidin-1-yl)pyrimidin-5-yl)isoxazol-5-yl)-3-methylbutanoyl)-4-hydroxy-N-((S)-1-(4-(4-methylthiazol-5-yl)phenyl)ethyl)pyrrolidine-2-carboxamide], on HiBit-BRM fusion protein, the “BRM HiBit Degradation Maximum (%)” value is “A (“A” indicates maximum degradation ≥75%)” and the DC50 is less than 10 nM. For the same compound, in assay [1], the Dmax was greater than 50% and the DC50 is greater than 10 nM.
